Source: patent US6469013B2, “Therapeutic compounds” (Parker Hughes Institute, priority 1998, dated 2002)
Like-named read-outs stand apart in the source and are kept apart here.

Legend:
NALM-6 (pre-B ALL) = experiment: Methylcellulose clonogenic assay; assay type: cell-based, human
Procedure: The antileukemic activity of compound 6 against clonogenic tumor cells was examined using a methylcellulose colony assay system (Uckun, F. M., et al., J. Exp. Med. 163: 347-368, 1986; Messinger, Y., et al., Clin Cancer Res. 4: 165-70, 1998). In brief, cells (10^5/ml in RPMI-10% FBS) were treated overnight at 37° C. with compound 6 at varying concentrations. After treatment, cells were washed twice, plated at 10^4 or 10^5 cells/ml in RPMI-10% FMS-0.9% methylcellulose in Petri dishes, and cultured for 7 days at 37° C. in a humidified 5% CO2 incubator. Subsequently, leukemic cell (or tumor cell) colonies were enumerated using an inverted phase-contrast microscope. The percent inhibition of colony formation was calculated using the following formula:
% Inhibition=1−mean number of colonies in test culture×100 mean number of colonies in control culture

skh-1 mice = experiment: Acute UVB skin inflammation: skinfold thickness, morphology, histology; assay type: in vivo, mouse; conditions: 48 h post UVB; UVB vehicle 3-5, normal 2-3
From the text: A bank of 8-FSX24T12/HO/UVB lamps (National Biological Corporation, Twinsburg, Ohio) that emits light predominantly in the UVB range, 280-320 nm was used to irradiate mice and cell cultures. The irradiance of UVB lamps was always measured before irradiation using a UVB meter (model—500C obtained from National Biological Corporation, Twinsburg, Ohio). The dose of UVB light used to irradiate cultures was 25 mj/cm^2. Anesthetized mice received UVB radiations to a 2.0 cm^2 area on their dorsal surface. This area was painted either with the test compound (1.5 mg/cm^2) in drug receiving mice, or with vehicle in control mice fifteen minutes before irradiation. The distance between UVB lamps and surface receiving irradiation was 20 cm. The final radiation dose received by skh-1 hairless mice was 250 mj/cm^2 which is approximately seven times higher than the minimal erythema dose (MED) (17) in these mice. […]
Morphological appearance of the UVB irradiated skin was monitored visually and compared with the control mice skin. Skinfold thickness of the dorsal surface of the mice was recorded before, and everyday after UVB exposure for five days with a digital thickness gauge (Mitutoyo, So. Plainfield, N.J.) which measures thickness in 0-10 mm range with an accuracy of 0.015 mm. […]

C57BL/6 splenocytes = experiment: Splenocyte apoptosis (TUNEL, flow cytometry); assay type: cell-based, mouse; conditions: 20 h
Procedure: C57BL/6 splenocytes (3×10^6/ml) were cultured in 24-well plate for 20 h in 500 μl of RPMI-1640 under the conditions described above. […] Apoptotic cell death was detected by TUNEL, using InSitu Cell Detection Kit, Fluorescein (Boehringer Mannheim, Indianapolis, Ind.). After the culture period, cells were washed, fixed, permeabilised and stained following manufacturer's instructions and apoptosis was analyzed by flow cytometry, using FACS Calibur (Becton Dickinson, San Jose, Calif.).

SMILES: COc1cc2ncnc(Nc3ccc(O)cc3)c2cc1OC [WHI-P131, 4-(4′-hydroxyl-phenyl)-amino-6,7-dimethoxyquinazoline]
- inhibition at 100 µM (NALM-6 (pre-B ALL); Homo sapiens, NALM-6, 100 μM, 'these leukemia cell lines', read-out: inhibition of in vitro colony formation): > 99%
- inhibition at 0.1 µM (NALM-6 (pre-B ALL); Homo sapiens, NALM-6, 0.1 μM): 0%
- inhibition at 1 µM (NALM-6 (pre-B ALL); Homo sapiens, NALM-6, 1 μM): 0%
- inhibition at 10 µM (NALM-6 (pre-B ALL); Homo sapiens, NALM-6, 10 μM): 33.2%
- inhibition at 100 µM (NALM-6 (pre-B ALL); Homo sapiens, NALM-6, 100 μM, read-out: % Inhibition): > 99.9%
- EC50 (NALM-6 (pre-B ALL); Homo sapiens, NALM-6 cells, read-out: EC50, inhibition of clonogenic growth): 24.4 µM
- Mean No. of Colonies/10^5 Cells (NALM-6 (pre-B ALL); NALM-6, 0.1 μM): 2970 (2756, 3184)
- Mean No. of Colonies/10^5 Cells (NALM-6 (pre-B ALL); NALM-6, 1 μM): 3180 (3080, 3136)
- Mean No. of Colonies/10^5 Cells (NALM-6 (pre-B ALL); NALM-6, 10 μM): 1932 (1864, 2000)
- Mean No. of Colonies/10^5 Cells (NALM-6 (pre-B ALL); NALM-6, 100 μM): 2 (2, 2)
- cell layers of epidermis (skh-1 mice): 1-2 cell layers
- apoptotic cell death of splenocytes (TUNEL-positive) (C57BL/6 splenocytes; 0.1 and 1 μg/ml): does not differ from control cells
- apoptotic cell death of splenocytes (TUNEL-positive) (C57BL/6 splenocytes; 10 and 100 μg/ml): significantly increased
